Source: US20230143612A1 (Arbutus Biopharma Corporation, priority 2020, published 2023)

Biological target: PD-L1 His protein / PD-1 Fc protein (Homo sapiens, UniProt Q9NZQ7)
Test: HTRF Assay (PD-1/PD-L1 interaction)
Format: binding
Conditions: PD-L1 His 6 nM, PD-1 Fc 6 nM
Experimental: PD-L1 His protein was prepared and added at the final concentration of 6 nM in the White opaque 384 well plate (Corning cat #3824BC). PD-L1 small molecule inhibitors were diluted by 3-fold starting from 20 μM and a final concentration of 0.001 μM and added to the well. PD-1 Fc protein was added at the final concentration of 6 nM. PD-L1 His protein, PD-L1 small molecule inhibitors, and PD1 Fc proteins were added to the well in this order, with each 5 μl volume, and were incubated for 15 minutes at room temperature. PAb anti-Human IgG-XL665 (Cisbio, cat #61HFCXLA) and Mab anti-6HIS Tb cryptate Gold (Cisbio, cat #61HI2TLA) were mixed at 6.7 nM and 0.35 nM respectively, and total 5 μl volume of mixture was added to the well and incubated at room temperature for 1 hour. The plate was read using PerkinElmer Envision plate reader and data was analyzed by Prism 6 software.

PD-L1 His protein / PD-1 Fc protein, sequence (Q9NZQ7 19-238 limits assumed): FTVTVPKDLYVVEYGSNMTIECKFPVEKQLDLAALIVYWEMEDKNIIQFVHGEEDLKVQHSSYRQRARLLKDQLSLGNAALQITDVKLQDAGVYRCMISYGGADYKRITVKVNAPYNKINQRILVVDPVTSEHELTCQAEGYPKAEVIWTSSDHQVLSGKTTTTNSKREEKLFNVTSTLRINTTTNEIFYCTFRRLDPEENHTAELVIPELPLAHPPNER

Compound	IC50 [nM]
COc1nc(-c2cccc(-c3cccc(-c4ccn5c(=O)c(CNC[C@@H]6CCC(=O)N6)cnc5c4)c3Cl)c2Cl)ccc1CNC1(C(=O)O)CC1 [Example 115, (S)-1-(((6-(2,2′-Dichloro-3′-(4-oxo-3-((((5-oxopyrrolidin-2-yl)methyl)amino)methyl)-4H-pyrido[1,2-a]pyrimidin-8-yl)-[1,1′-biphenyl]-3-yl)-2-methoxypyridin-3-yl)methyl)amino)cyclopropane-1-carboxylic acid]	2.5
COc1nc(-c2cccc(-c3cccc(-c4ccc5c(c4)cc4n5CCNC4)c3Cl)c2Cl)ccc1CNC[C@@H]1CCC(=O)N1 [Example 365, (S)-5-((((6-(2,2′-Dichloro-3′-(1,2,3,4-tetrahydropyrazino[1,2-a]indol-8-yl)-[1,1′-biphenyl]-3-yl)-2-methoxypyridin-3-yl)methyl)amino)methyl)919yrrolidine-2-one]	13
O=C1CC[C@@H](CNCc2cnc3cc(-c4cccc(-c5cccc(-c6ccc7c(n6)OCCNC7)c5Cl)c4Cl)ccn3c2=O)N1 [Example 261, (S)-8-(2,2′-Dichloro-3′-(2,3,4,5-tetrahydropyrido[3,2-f][1,4]oxazepin-8-yl)-[1,1′-biphenyl]-3-yl)-3-((((5-oxopyrrolidin-2-yl)methyl)amino)methyl)-4H-pyrido[1,2-a]pyrimidin-4-one]	250
COc1nc(-c2cccc(-c3cccc(-c4ccc5c(n4)N(C)CCC5NC[C@@H]4CCC(=O)N4)c3Cl)c2Cl)ccc1CNC[C@@H]1CCC(=O)N1 (single isomer, unassigned) [Example 53]	1.7
CNCCN(C)Cc1cnc2cc(-c3cccc(-c4cccc(-c5ccc(CNC[C@@H]6CCC(=O)N6)c(OC)n5)c4Cl)c3Cl)ccn2c1=O [Example 278, (S)-8-(2,2′-dichloro-3′-(6-methoxy-5-((((5-oxopyrrolidin-2-yl)methyl)amino)methyl)pyridin-2-yl)-[1,1′-biphenyl]-3-yl)-3-((methyl(2-(methylamino)ethyl)amino)methyl)-4H-pyrido[1,2-a]pyrimidin-4-one]	0.1
COc1nc(-c2cccc(-c3cccc(-c4ccn5c(=O)c(CNC[C@@H]6CCC(=O)N6)cnc5c4)c3Cl)c2Cl)ccc1C1=NCCC(C(=O)O)N1 (mixture of isomers) [Example 180, 2-(6-(2,2′-Dichloro-3′-(4-oxo-3-(((((S)-5-oxopyrrolidin-2-yl)methyl)amino)methyl)-4H-pyrido[1,2-a]pyrimidin-8-yl)-[1,1′-biphenyl]-3-yl)-2-methoxypyridin-3-yl)-3,4,5,6-tetrahydropyrimidine-4-carboxylic acid]	0.9
COc1nc(-c2cccc(-c3cccc(-c4cn5cc(CNC[C@@H]6CCC(=O)N6)ccc5n4)c3Cl)c2Cl)ccc1CNC[C@@H]1CCC(=O)N1 [Example 99, (S)-5-((((6-(2,2′-Dichloro-3′-(6-(((((S)-5-oxopyrrolidin-2-yl)methyl)amino)methyl)imidazo[1,2-a]pyridin-2-yl)-[1,1′-biphenyl]-3-yl)-2-methoxypyridin-3-yl)methyl)amino)methyl)pyrrolidin-2-one]	4.8
COc1nc(-c2cccc(-c3cccc(-c4ccc5nc(C(=O)NC[C@H](C)N)cn5n4)c3Cl)c2Cl)ccc1CNC[C@@H]1CCC(=O)N1 [Example 439, N-[(2S)-2-Aminopropyl]-6-[2-chloro-3-[2-chloro-3-[6-methoxy-5-[[[(2S)-5-oxopyrrolidin-2-yl]methylamino]methyl]-2-pyridyl]phenyl]phenyl]imidazo[1,2-b]pyridazine-2-carboxamide]	20
COc1nc(-c2cccc(-c3cccc(-c4ccc5c(CNC[C@H](C)O)cn(C)c5n4)c3Cl)c2Cl)ccc1CNC[C@@H]1CCC(=O)N1 [Example 411, (5S)-5-[[[6-[2-Chloro-3-[2-chloro-3-[3-[[[(2S)-2-hydroxypropyl]amino]methyl]-1-methyl-pyrrolo[2,3-b]pyridin-6-yl]phenyl]phenyl]-2-methoxy-3-pyridyl]methylamino]methyl]pyrrolidin-2-one]	1.6
COc1c(CNC[C@@H]2CCC(=O)N2)ccc2nc(-c3cccc(-c4cccc(-c5ccn6c(=O)c(CNC[C@@H]7CCC(=O)N7)cnc6c5)c4Cl)c3Cl)ccc12 [Example 176, 8-(2,2′-Dichloro-3′-(5-methoxy-6-(((((S)-5-oxopyrrolidin-2-yl)methyl)amino)methyl)quinolin-2-yl)-[1,1′-biphenyl]-3-yl)-3-(((((S)-5-oxopyrrolidin-2-yl)methyl)amino)methyl)-4H-pyrido[1,2-a]pyrimidin-4-one]	250
COc1nc(-c2cccc(-c3cccc(-c4ccn5c(=O)c(CN6CC[C@H](O)C6)cnc5c4)c3Cl)c2Cl)ccc1CN1CC[C@H](O)C1 [Example 165, 8-(2,2′-Dichloro-3′-(5-(((S)-3-hydroxypyrrolidin-1-yl)methyl)-6-methoxypyridin-2-yl)-[1,1′-biphenyl]-3-yl)-3-(((S)-3-hydroxypyrrolidin-1-yl)methyl)-4H-pyrido[1,2-a]pyrimidin-4-one]	0.1
COc1nc(-c2cccc(-c3cccc(-c4ccn5c(=O)c(CN[C@H]6C[C@](C)(O)C6)c(OC)nc5c4)c3Cl)c2Cl)ccc1CNC[C@@H]1CCC(=O)N1 [Example 348, 8-(2,2′-Dichloro-3′-(6-methoxy-5-(((((S)-5-oxopyrrolidin-2-yl)methyl)amino)methyl)pyridin-2-yl)-[1,1′-biphenyl]-3-yl)-3-((((1r,3r)-3-hydroxy-3-methylcyclobutyl)amino)methyl)-2-methoxy-4H-pyrido[1,2-a]pyrimidin-4-one]	2.2
COc1nc(-c2cccc(-c3cccc(-c4ccn5c(=O)c(CNCCO)cnc5c4)c3Cl)c2Cl)ccc1CNC[C@@H]1CCC(=O)N1 [Example 80, (S)-8-(2,2′-Dichloro-3′-(6-methoxy-5-((((5-oxopyrrolidin-2-yl)methyl)amino)methyl)pyridin-2-yl)-[1,1′-biphenyl]-3-yl)-3-(((2-hydroxyethyl)amino)methyl)-4H-pyrido[1,2-a]pyrimidin-4-one]	4.2
COc1nc(-c2cccc(-c3cccc(-c4cc(C)n5c(=O)c(CNC[C@@H]6CCC(=O)N6)cnc5c4)c3Cl)c2Cl)ccc1CNC[C@@H]1CCC(=O)N1 [Example 183, 8-(2,2′-Dichloro-3′-(6-methoxy-5-(((((S)-5-oxopyrrolidin-2-yl)methyl)amino)methyl)pyridin-2-yl)-[1,1′-biphenyl]-3-yl)-6-methyl-3-(((((S)-5-oxopyrrolidin-2-yl)methyl)amino)methyl)-4H-pyrido[1,2-a]pyrimidin-4-one]	44
CN1CCC(NC[C@@H]2CCC(=O)N2)c2ccc(-c3cccc(-c4cccc(-c5ccc6c(n5)N(C)CCC6NC[C@@H]5CCC(=O)N5)c4Cl)c3Cl)nc21 (stereo partly drawn) [Example 42, (5S,5'S)-5,5′-((((2,2′-Dichloro-[1,1′-biphenyl]-3,3′-diyl)bis(1-methyl-1,2,3,4-tetrahydro-1,8-naphthyridine-7,4-diyl))bis(azanediyl))bis(methylene))bis(pyrrolidin-2-one)]	2.3
COc1nc(-c2cccc(-c3cccc(-c4cc(=O)n5cc(CNC[C@@H]6CCC(=O)N6)ccc5n4)c3Cl)c2Cl)ccc1CNC[C@@H]1CCC(=O)N1 [Example 59, 2-(2,2′-Dichloro-3′-(6-methoxy-5-(((((S)-5-oxopyrrolidin-2-yl)methyl)amino)methyl)pyridin-2-yl)-[1,1′-biphenyl]-3-yl)-7-(((((S)-5-oxopyrrolidin-2-yl)methyl)amino)methyl)-4H-pyrido[1,2-a]pyrimidin-4-one]	2.9
CSc1nc(-c2cccc(-c3cccc(-c4ccn5c(=O)c(CNC[C@@H]6CCC(=O)N6)cnc5c4)c3Cl)c2Cl)ccc1CNC[C@@H]1CCC(=O)N1 [Example 108, 8-(2,2′-Dichloro-3′-(6-(methylthio)-5-(((((S)-5-oxopyrrolidin-2-yl)methyl)amino)methyl)pyridin-2-yl)-[1,1′-biphenyl]-3-yl)-3-(((((S)-5-oxopyrrolidin-2-yl)methyl)amino)methyl)-4H-pyrido[1,2-a]pyrimidin-4-one]	1
COc1nc(-c2cccc(-c3cccc(-c4ccc5nc(CNC[C@@H]6CCC(=O)N6)cn5n4)c3Cl)c2Cl)ccc1CNC[C@@H]1CCC(=O)N1 [Example 338, (5S)-5-[[[6-[2-Chloro-3-[2-chloro-3-[2-[[[(2S)-5-oxopyrrolidin-2-yl]methylamino]methyl]imidazo[1,2-b]pyridazin-6-yl]phenyl]phenyl]-2-methoxy-3-pyridyl]methylamino]methyl]pyrrolidin-2-one]	0.3
COc1nc(-c2cccc(-c3cccc(-c4ccn5c(=O)c(CNCCN6CCCC6=O)cnc5c4)c3Cl)c2Cl)ccc1CNC[C@@H]1CCC(=O)N1 [Example 219, 8-[2-Chloro-3-[2-chloro-3-[6-methoxy-5-[[[(2S)-5-oxopyrrolidin-2-yl]methylamino]methyl]-2-pyridyl]phenyl]phenyl]-3-[[2-(2-oxopyrrolidin-1-yl)ethylamino]methyl]pyrido[1,2-a]pyrimidin-4-one]	0.7
COc1nc(-c2cccc(-c3cccc(-c4cnc5c(CNC[C@@H]6CCC(=O)N6)cn(C)c5c4)c3Cl)c2Cl)ccc1CNC[C@@H]1CCC(=O)N1 [Example 375, (S)-5-((((6-(2,2′-Dichloro-3′-(1-methyl-3-(((((S)-5-oxopyrrolidin-2-yl)methyl)amino)methyl)-1H-pyrrolo[3,2-b]pyridin-6-yl)-[1,1′-biphenyl]-3-yl)-2-methoxypyridin-3-yl)methyl)amino)methyl)pyrrolidin-2-one]	180
